Laboratory results taken from patent US7135466B2 (Kirin Beer Kabushiki Kaisha, priority 1999, dated 2006).
Like-named read-outs stand apart in the source and are kept apart here.

Columns and labels:
PDGF-R = PDGF-R (Rattus norvegicus, UniProt Q05030); experiment: PDGF-R autophosphorylation inhibition screening (dot plotting), vascular smooth muscle cells, PDGF-BB; type: cell-based; settings: for inhibition at 1 µM: figure in parentheses in −( ), at 1000 nM, read-out: PDGF (D) inhibition (%) at 1000 nM; for IC50: PDGF (D) column
Chain of PDGF-R (Q05030 32-1097): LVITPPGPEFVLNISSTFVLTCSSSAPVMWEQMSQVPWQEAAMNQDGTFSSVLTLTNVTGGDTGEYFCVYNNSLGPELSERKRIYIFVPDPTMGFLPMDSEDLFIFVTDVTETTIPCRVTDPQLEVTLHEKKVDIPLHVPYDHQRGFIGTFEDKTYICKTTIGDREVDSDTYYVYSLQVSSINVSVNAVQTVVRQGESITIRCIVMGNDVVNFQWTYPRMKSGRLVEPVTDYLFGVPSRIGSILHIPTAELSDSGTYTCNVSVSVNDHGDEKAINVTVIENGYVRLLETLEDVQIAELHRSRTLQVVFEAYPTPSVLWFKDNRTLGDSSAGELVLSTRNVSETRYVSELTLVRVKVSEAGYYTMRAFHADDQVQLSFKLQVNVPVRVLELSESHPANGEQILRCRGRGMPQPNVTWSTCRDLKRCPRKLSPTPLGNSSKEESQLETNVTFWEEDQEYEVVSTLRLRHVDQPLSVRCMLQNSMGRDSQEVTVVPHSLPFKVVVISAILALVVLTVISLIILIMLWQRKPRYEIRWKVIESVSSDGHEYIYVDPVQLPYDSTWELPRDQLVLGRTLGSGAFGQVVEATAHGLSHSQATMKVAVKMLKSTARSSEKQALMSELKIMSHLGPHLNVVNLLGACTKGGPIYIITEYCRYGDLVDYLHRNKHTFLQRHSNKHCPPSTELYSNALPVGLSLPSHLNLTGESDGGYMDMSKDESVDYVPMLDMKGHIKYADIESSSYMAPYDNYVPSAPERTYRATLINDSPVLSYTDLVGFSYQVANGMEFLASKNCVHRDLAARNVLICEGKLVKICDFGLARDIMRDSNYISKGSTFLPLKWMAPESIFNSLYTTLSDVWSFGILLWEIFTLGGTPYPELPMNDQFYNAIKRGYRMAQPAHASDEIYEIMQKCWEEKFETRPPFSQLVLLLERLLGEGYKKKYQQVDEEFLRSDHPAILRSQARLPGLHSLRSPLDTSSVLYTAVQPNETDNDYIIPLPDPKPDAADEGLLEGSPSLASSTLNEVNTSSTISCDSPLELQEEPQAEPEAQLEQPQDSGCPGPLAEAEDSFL
Protocol: PDGF-R Autophosphorylation Inhibition Screening (Dot Plotting)
Vascular smooth muscle cells (passage 5 to 10) collected from rat thoracic aorta by the explant method were planted at 8×10^3 cells per well in 96-well plates, subject to a serum starvation state, and 24 hr after the plantation then assayed.
A test compund was added, and the mixture was incubated at 37° C. for one hr. Thereafter, PDGF-BB was added to 50 ng/ml, and the mixture was incubated for 5 min, followed by washing with cold PBS. Lysate buffer (20 μl/well) was then added, SDS buffer ([…]) was added thereto, and 2 μl of the mixture was then spotted on a PDVF membrane.
Treatment was carried out with anti-mouse IgG which had been labelled with peroxidase after treatment with an anti-phosphotyrosine antibody, followed by development in an ECL color development kit (Amersham). Thereafter, the color intensity was quantitatively determined by image analysis.

c-kit = biological target: T1, c-kit (Homo sapiens, UniProt P10721); experiment: Inhibitory activity against c-kit autophosphorylation (MO7e cells, h-SCF); type: cell-based; settings: for inhibition at 1 µM: Mo7e; for IC50: MO7e cells, read-out: c-kit IC50
T1 construct: MO7e (human megakaryocytic leukemia cell line) which had been arrested for 20 hr; endogenous in cells; host or cells: MO7e human megakaryocytic leukemia cell line
T1 sequence (P10721 26-976): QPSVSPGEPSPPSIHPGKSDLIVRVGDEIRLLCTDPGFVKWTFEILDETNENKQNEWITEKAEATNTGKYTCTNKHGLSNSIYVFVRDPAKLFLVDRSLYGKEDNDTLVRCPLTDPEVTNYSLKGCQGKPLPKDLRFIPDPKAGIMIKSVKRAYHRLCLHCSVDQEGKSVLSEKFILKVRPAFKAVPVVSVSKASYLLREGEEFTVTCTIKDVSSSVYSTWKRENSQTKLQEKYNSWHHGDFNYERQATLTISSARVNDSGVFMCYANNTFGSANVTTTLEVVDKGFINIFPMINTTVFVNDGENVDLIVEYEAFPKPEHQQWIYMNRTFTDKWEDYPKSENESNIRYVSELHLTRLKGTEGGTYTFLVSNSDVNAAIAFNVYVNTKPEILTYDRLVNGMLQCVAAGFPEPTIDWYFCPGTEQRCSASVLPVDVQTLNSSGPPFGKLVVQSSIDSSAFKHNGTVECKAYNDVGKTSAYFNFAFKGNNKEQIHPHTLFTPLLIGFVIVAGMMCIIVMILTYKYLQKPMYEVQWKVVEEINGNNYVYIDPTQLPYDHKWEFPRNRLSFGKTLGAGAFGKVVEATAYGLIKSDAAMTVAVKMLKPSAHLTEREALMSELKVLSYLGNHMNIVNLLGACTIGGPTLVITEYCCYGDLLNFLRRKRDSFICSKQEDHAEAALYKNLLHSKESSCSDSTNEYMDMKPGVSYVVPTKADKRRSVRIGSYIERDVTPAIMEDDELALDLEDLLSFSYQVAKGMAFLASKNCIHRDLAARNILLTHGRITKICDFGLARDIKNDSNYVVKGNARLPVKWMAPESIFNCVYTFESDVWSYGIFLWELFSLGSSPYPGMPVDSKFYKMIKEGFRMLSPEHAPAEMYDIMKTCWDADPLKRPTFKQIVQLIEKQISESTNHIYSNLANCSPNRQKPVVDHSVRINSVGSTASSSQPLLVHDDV
Summary of the method: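 MO7e human megakaryocytic leukemia cells, arrested 20 hr, treated with compound 1 hr, then stimulated with 50 ng/ml h-SCF for 5 min and lysed. Lysates captured on immobilized anti-phosphotyrosine antibody, detected with anti-c-kit primary and HRP secondary antibody; absorbance at 450 nm.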

[1] = figure in parentheses in −( ), at 1000 nM

Row | inhibition at 1 µM (PDGF-R) | inhibition at 1 µM (c-kit; [1]) | Compound | further results
1 | 50% | 19% | COc1cc2nccc(Oc3ccc(S(=O)(=O)CCOc4ccc(Cl)cc4Cl)cc3)c2cc1OC [Example 831, 2-(2,4-Dichlorophenoxy)ethyl{4-[(6,7-dimethoxy-4-quinolyl)oxy]phenyl}sulfone] | 
2 | 43% |  | COc1ccc(C(=O)NC(=S)Nc2ccc(Oc3ccnc4cc(OC)c(OC)cc34)cc2F)c(OC)c1 [Example 1123, N-(2,4-Dimethoxybenzoyl)-N′-{4-[(6,7-dimethoxy-4-quinolyl)oxy]-2-fluorophenyl}thiourea] | IC50 (c-kit; h-SCF stimulation): 0.961 µM
3 | 34% | 18% | CCCCCCCCCCCC(=O)NC(=S)Nc1ccc(Oc2ccnc3cc(OC)c(OC)cc23)cc1 [Example 1072, N-{4-[(6,7-Dimethoxy-4-quinolyl)oxy]phenyl}-N′-dodecanoylthiourea] | 
4 | 24% | 30% | COc1cc2nccc(Oc3ccc([S+]([O-])CCOc4ccc(F)cc4[N+](=O)[O-])cc3)c2cc1OC (stereo not drawn) [Example 839, {4-[(6,7-Dimethoxy-4-quinolyl)oxy]phenyl}[2-(4-fluoro-2-nitrophenoxy)ethyl] sulfoxide] | 
5 | 48% | 19% | COc1cc2nccc(Oc3ccc(NC(=S)NC(=O)c4ccc(Cl)cc4Cl)c(C)c3C)c2cc1OC [Example 1086, N-(2,4-Dichlorobenzoyl)-N′-{4-[(6,7-dimethoxy-4-quinolyl)oxy]-2,3-dimethylphenyl}thiourea] | 
6 | 17% | 31% | CCCCCCCCCCCC(=O)NC(=S)Nc1ccc(Oc2ccnc3cc(OC)c(OC)cc23)cc1F [Example 1075, N-{4-[(6,7-Dimethoxy-4-quinolyl)oxy]-2-fluorophenyl}-N′-dodecanoylthiourea] | 
7 |  |  | {4-[(6,7-Dimethoxy-4-quinolyl)oxy]phenyl}[2-(3-methoxy-4-nitrophenoxy)ethyl] sulfoxide [Example 838] | IC50 (PDGF-R; > means inhibition at indicated concentration not more than 50%, < not less than 50%): 0.59 µM; c-kit inhibition (%) at 1000 nM (c-kit; [1]): −(23) %
8 | 20% | 25% | COc1ccc(C(=O)NC(=S)Nc2ccc(Oc3ccnc4cc(OC)c(OC)cc34)cc2C)cc1 [Example 1095, N-{4-[(6,7-Dimethoxy-4-quinolyl)oxy]-2-methylphenyl}-N′-(4-methoxybenzoyl)thiourea] | 
9 | 30% | 10% | COc1cc2nccc(Oc3ccc(S(=O)(=O)CCOc4ccc(F)cc4)cc3)c2cc1OC [Example 829, 4-[(6,7-Dimethoxy-4-quinolyl)oxy]phenyl [2-(4-fluorophenoxy)ethyl]sulfone] | 
10 | 35% | 21% | COc1cc2nccc(Oc3ccc(S(=O)(=O)CCOc4cccc(Cl)c4)cc3)c2cc1OC [Example 832, 2-(3-Chlorophenoxy)ethyl{4-[(6.7-dimethoxy-4-quinolyl)oxy]phenyl}sulfone] | 
11 | 23% | 1% | COc1cc2nccc(Oc3ccc(S(=O)(=O)CCOc4ccc(C)cc4)cc3)c2cc1OC [Example 834, 4-[(6,7-Dimethoxy-4-quinolyl)oxy]phenyl [2-(4-methylphenoxy)ethyl]sulfone] | 
12 | 50% | 47% | COc1cc2nccc(Oc3ccc(NC(=S)NC(=O)c4ccc([N+](=O)[O-])cc4)c(C)c3C)c2cc1OC [Example 1081, N-{4-[(6,7-Dimethoxy-4-quinolyl)oxy]-2,3-dimethylphenyl}-N′-(4-nitrobenzoyl)thiourea] | 
13 | 15% | 10% | COc1cc2nccc(Oc3ccc(NC(=S)NC(=O)c4ccc([N+](=O)[O-])cc4)c(C)c3)c2cc1OC [Example 1092, N-{4-[(6,7-Dimethoxy-4-quinolyl)oxy]-2-methylphenyl}-N′-(4-nitrobenzoyl)thiourea] | 
14 | 23% | 10% | COc1cccc(OCCS(=O)(=O)c2ccc(Oc3ccnc4cc(OC)c(OC)cc34)cc2)c1 [Example 830, 4-[(6,7-Dimethoxy-4-quinolyl)oxy]phenyl [2-(3-methoxyphenoxy)ethyl]sulfone] | 
15 |  |  | N-{4-[(6,7-Dimethoxy-4-quinolyl)oxy]-2-fluorophenyl}-N′-(methylamino)urea [Example 611] | IC50 (PDGF-R): 0.095 µM; IC50 (c-kit; 50 ng/ml h-SCF): 1.07 µM
16 | 10% | 19% | COc1cc2nccc(Oc3ccc(S(=O)(=O)CCOc4ccccc4F)cc3)c2cc1OC [Example 837, 4-[(6,7-Dimethoxy-4-quinolyl)oxy]phenyl [2-(2-fluorophenoxy)ethyl]sulfone] | 
17 | 23% | 20% | CCCCCCCCCCCCCC(=O)NC(=S)Nc1ccc(Oc2ccnc3cc(OC)c(OC)cc23)cc1 [Example 1073, N-{4-[(6,7-Dimethoxy-4-quinolyl)oxy]phenyl}-N′-tetradecanoylthiourea] | 
18 | 30% | 3% | COc1cc2nccc(Oc3ccc(NC(=S)NC(=O)c4ccc(C)cc4)c(C)c3)c2cc1OC [Example 1096, N-{4-[(6,7-Dimethoxy-4-quinolyl)oxy]-2-methylphenyl}-N′-(4-methylbenzoyl)thiourea] | 
